Test results published in patent US20180369268A1, “METHODS FOR IDENTIFYING INHIBITORS OF "STIMULATOR OF INTERFERON GENE"- DEPENDENT INTERFERON PRODUCTION” (ADURO BIOTECH, INC., priority 2015, published 2018).
Where two headings read alike, the source gives them in different places.

How the values were obtained:
Assay in all cases: Differential scanning fluorometry (DSF) Tm shift with purified STING AA140-379
Format in all cases: binding
hSTING HAQ allele = biological target: T1, hSTING HAQ allele (Homo sapiens, UniProt Q86WV6, G230A/H232R/R293Q); settings: read-out: hSTING Tm Shift HAQ
T1 construct: DNA encoding amino acids 140-379 (amino acid numbering corresponding to Swiss Prot Q86WV6); 6xHIS-SUMO (with TEV site) (N, cleaved yes); made in house; host or cells: Rosetta2 (DE3) E. coli
Text: (§1) DNA encoding amino acids 140-379 (amino acid numbering corresponding to Swiss Prot Q86WV6) was amplified from plasmids containing the full length sequence of human STING alleles via polymerase chain reaction with the following primers: forward […] (SEQ ID NO: 9) and reverse […] (SEQ ID NO: 10). STING variant alleles were assigned according to Yi, et al, (2013), PLoS One, 8(10), e77846 (DOI: 10.1371/journal.pone.0077846. PCR products were cloned into bacterial expression vector encoding a N-terminal hexa-histidine affinity tag (6×HIS) followed by a small ubiquitin-like modifier (SUMO) solubility sequence (Butt, et al, (2005) Protein expression and purification 43.1, 1-9) and tobacco etch virus protease cleavage site (TEV) using ligation independent cloning (Aslanidis, et al, (1990) Nucleic acids research, 18.20, 6069-6074).
(§2) Plasmids encoding 6×HIS-SUMO-TEV-STING amino acids 140-379 were transformed into Rosetta2 (DE3) E. coli cells (EMD Millipore) for protein expression. Cells were grown in lysogeny broth at 37° C. until a […] absorbance of 0.6 was reached. Cells were then transferred to 18° C. and protein expression was induced overnight by the addition of isopropyl β-D-1-thiogalactopyranoside to the media at a concentration of 0.25 mM. Cells were harvested by centrifugation at 6,000 times gravity for 10 minutes. Cell pellets were re-suspended on ice in a buffer containing 50 mM Tris hydrochloride (Tris-HCl) pH 7.5, 500 mM sodium chloride (NaCl), 20 mM imidazole, 10% glycerol, 1 mM tris(2-carboxyethyl)phosphine hydrochloride (TCEP) and protease inhibitor tablet (Pierce) (Buffer A). Cells were lysed using an S-450D sonifier (Emmerson industrial) on ice. Cell lysate was centrifuged at 15,000 times gravity for 30 minutes at 4° C. Soluble material was applied to nickel-nitrilotriacetic acid (Ni-NTA) coupled Sepharose CL-6B (Qiagen) for 1 hour with gentle rocking at 4° C. After transfer to a gravity flow poly-prep column (Bio-Rad), resin was washed extensively in buffer A. Protein was eluted from the column in a buffer containing 20 mM Tris-HCl pH 7.5, 150 mM NaCl, 300 mM imidazole, 10% glycerol and 0.5 mM TCEP. To remove the 6×HIS-SUMO tag eluted protein was mixed with TEV protease (Sigma) at a ratio of 1:250 (w:w) and dialyzed overnight against a buffer containing 20 mM Tris-HCl pH 7.5, 150 mM NaCl, 5 mM imidazole, 10% glycerol and 0.5 mM TCEP. TEV protease and 6×HIS-SUMO tags were depleted by the addition of Ni-NTA resin (Qiagen) to the sample, purified STING amino acids 140-379 was collected by removal of the resin using a poly-prep column STING AA140-379 was concentrated with a 10,000 Dalton molecular weight cutoff centrifuge concentrator (EMD Millipore) to a final concentration of approximately 10 mg/ml. Protein was aliquoted, flash frozen in liquid nitrogen and stored at −80° C. until use.
(§3) Differential scanning fluorometry (DSF) is a technique that measures the ability of ligands to bind to and stabilize purified proteins (Niesen, et al, (2007) Nature protocols 2.9, 2212-2221). The protein is heated in the presence of a dye that binds to and fluoresces in hydrophobic environments. The protein is thermally denatured by heating resulting in increased dye binding to the unfolded protein and fluorescence. The temperature midpoint (Tm) of a proteins denaturation is established by calculating the half maximal value of the denaturation curve. The temperature midpoint of the protein in the presence of a ligand is directly related to the affinity of the ligand for the protein and therefore its ability to stabilize the protein at higher temperatures.
(§4) DSF was performed in a 20 μL reaction comprising 20 mM Tris-HCl pH 7.5, 150 mM NaCl, 1:500 dilution of SYPRO Orange (Life Technologies), 1 mg/ml purified STING AA140-379 protein and ligand at a concentration of 1 mM. Wild type hSTING, HAQ allele hSTING and/or REF allele hSTING were used with scaffold molecules of the invention as listed in Table 2.

hSTING WT = biological target: T2, hSTING WT (Homo sapiens, UniProt Q86WV6, H232R); settings: ligand 1 mM, 1 mg/ml STING AA140-379
T2 construct: DNA encoding amino acids 140-379 (amino acid numbering corresponding to Swiss Prot Q86WV6); 6xHIS-SUMO (with TEV site) (N, cleaved yes); made in house; host or cells: Rosetta2 (DE3) E. coli
Text: as §1, §2, §3, §4

hSTING REF allele = biological target: T3, hSTING REF allele (Homo sapiens, UniProt Q86WV6); settings: ligand 1 mM, 1 mg/ml STING AA140-379
T3 construct: DNA encoding amino acids 140-379 (amino acid numbering corresponding to Swiss Prot Q86WV6); 6xHIS-SUMO (with TEV site) (N, cleaved yes); made in house; host or cells: Rosetta2 (DE3) E. coli
Text: as §1, §2, §3, §4

[1] = DSF, ligand 1 mM, 1 mg/ml STING AA140-379

T2 sequence (Q86WV6 140-379 H232R): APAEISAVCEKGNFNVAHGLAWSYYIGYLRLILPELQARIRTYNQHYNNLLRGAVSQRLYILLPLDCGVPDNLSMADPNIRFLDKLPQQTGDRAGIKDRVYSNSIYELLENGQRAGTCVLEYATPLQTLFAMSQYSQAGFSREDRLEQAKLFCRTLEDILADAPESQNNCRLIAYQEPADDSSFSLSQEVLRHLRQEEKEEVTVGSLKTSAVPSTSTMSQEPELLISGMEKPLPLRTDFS
T3 sequence (Q86WV6 140-379): as the sequence (Q86WV6 140-379 H232R) above, with R93H counted along it
T1 sequence (Q86WV6 140-379 G230A/H232R/R293Q): as the sequence (Q86WV6 140-379 H232R) above, with G91A, R154Q counted along it

Row | Compound | ΔTm at 1000 µM (hSTING HAQ allele; [1]) [°C] | hSTING Tm Shift WT (hSTING WT) [°C] | hSTING Tm Shift REF (hSTING REF allele) [°C] | ΔTm at 1000 µM (hSTING HAQ allele) [°C]
1 | CC(C)C(=O)Nc1nc2c(ncn2[C@@H]2O[C@@H]3CO[P@@](=O)(S)O[C@@H]4[C@H](O)[C@@H](CO[P@@](=O)(S)O[C@H]3[C@H]2O)O[C@H]4n2cnc3c(NC(=O)c4ccccc4)ncnc32)c(=O)[nH]1 [Compound 42, dithio-[RP, RP]-cyclic-[ibG(3′,5′)p-BzA(2′,5′)p]] | 7.6 | – | – | –
2 | Nc1ccn([C@@H]2O[C@@H]3CO[P@](=O)(S)O[C@H]4[C@@H](F)[C@H](n5cnc6c(N)ncnc65)O[C@@H]4CO[P@@](=O)(S)O[C@H]3[C@H]2F)c(=O)n1 [Compound 37a, 4-amino-1-((2R,3R,3aR,5R,7aR,9R,10R, 10aR,12S,14aR)-9-(6-amino-9H-purin-9-yl)-3,10-difluoro-5,12-dimercapto-5,12-dioxidooctahydro-2H,7H-difuro[3,2-d: 3′,2′-j][1,3,7,9]tetraoxa[2,8]diphosphacyclododecin-2-yl)pyrimidin-2(1H)-one] | 6.4 | 5.6 | 5.3 | –
3 | Nc1ncnc2c1ncn2[C@H]1O[C@H]2CO[P@@](=O)(S)O[C@@H]3[C@H](O)[C@@H](n4cnc5c(N)ncnc54)O[C@H]3CO[P@@](=O)(S)O[C@@H]2[C@@H]1O [Compound 48b, triethylammonium (2S,3S,3R,5R,7aS,9S,10S,10aR,12R,14aS)-2,9-bis(6-amino-9H-purin-9-yl)-3,10-dihydroxyoctahydro-2H,7H-difuro[3,2-d: 3′,2′-j][1,3,7,9]tetraoxa[2,8]diphosphacyclododecine-5,12-bis(thiolate) 5,12-dioxide] | 3.5 | 3.0 | 6.4 | –
4 | CC(C)C(=O)Nc1nc2c(ncn2[C@@H]2O[C@@H]3CO[P@@](=O)(S)O[C@H]4[C@@H](F)[C@H](n5cnc6c(=O)[nH]c(NC(=O)C(C)C)nc65)O[C@@H]4CO[P@@](=O)(S)O[C@H]3[C@H]2F)c(=O)[nH]1 [Compound 32, N,N′-(((2R,3R,3aR,5R,7aR,9R,10R,10aR,12R,14aR)-3,10-difluoro-5,12-dimercapto-5,12-dioxidooctahydro-2H, 7H-difuro[3,2-d:3′,2′-j][1,3,7,9]tetraoxa[2,8]diphosphacyclododecine-2,9-diyl)bis(6-oxo-6,9-dihydro-1H-purine-9,2-diyl))bis(2-methylpropanamide)] | 11.5 | 10.7 | 10.5 | –
5 | Nc1nc(N)c2ncn([C@@H]3O[C@@H]4CO[P@@](=O)(S)O[C@H]5[C@@H](O)[C@H](n6cnc7c(N)nc(N)nc76)O[C@@H]5CO[P@@](=O)(S)O[C@H]4[C@H]3O)c2n1 [Compound 23, (2R,3R,3aS,5R,7aR,9R,10R,10aS,12R,14aR)-2,9-bis(2,6-diamino-9H-purin-9-yl)-3,10-dihydroxy-5,12-dimercaptooctahydro-2H,7H-difuro[3,2-d:3′,2′-j][1,3,7,9]tetraoxa[2,8]diphosphacyclododecine 5,12-dioxide] | 15.1 | 12.2 | 8.3 | –
6 | C#CCOc1nc(N)nc2c1ncn2[C@@H]1O[C@@H]2COP(=O)(O)O[C@H]3[C@@H](O)[C@H](n4cnc5c(=O)[nH]c(N)nc54)O[C@@H]3COP(=O)(O)O[C@H]2[C@H]1O [compound 25, 2-amino-9-((2R,3R,3aS,7aR,9R,10R,10aS,14aR)-9-(2-amino-6-(prop-2-yn-1-yloxy)-9H-purin-9-yl)-3,5,10,12-tetrahydroxy-5,12-dioxidooctahydro-2H,7H-difuro[3,2-d:3′,2′-j][1,3,7,9]tetraoxa[2,8]diphosphacyclododecin-2-yl)-1,9-dihydro-6H-purin-6-one] | 7.2 | – | – | –
7 | Nc1ncnc2c1ncn2[C@H]1O[C@H]2CO[P@@](=O)(S)O[C@@H]3[C@H](O)[C@@H](n4cnc5c(N)ncnc54)O[C@H]3CO[P@](=O)(S)O[C@@H]2[C@@H]1O [Compound 48a, Triethylammonium (2S,3S,3aR,5R,7aS,9S,10S,10aR,12S,14aS)-2,9-bis(6-amino-9H-purin-9-yl)-3,10-dihydroxyoctahydro-2H, 7H-difuro[3,2-d: 3′,2′-j][1,3,7,9]tetraoxa[2,8]diphosphacyclododecine-5,12-bis(thiolate) 5,12-dioxide] | 6.6 | 2.9 | 6.3 | –
8 | Nc1nc(N)c2ncn([C@@H]3O[C@@H]4CO[P@@](=O)(S)O[C@H]5[C@@H](O)[C@H](n6cnc7c(N)nc(N)nc76)O[C@@H]5CO[P@](=O)(S)O[C@H]4[C@H]3O)c2n1 [Compound 23a, (2R,3R,3aS,5R,7aR,9R,10R,10aS,12S,14aR)-2,9-bis(2,6-diamino-9H-purin-9-yl)-3,10-dihydroxy-5,12-dimercaptooctahydro-2H,7H-difuro[3,2-d:3′,2′-j][1,3,7,9]tetraoxa[2,8]diphosphacyclododecine 5,12-dioxide] | 6.3 | 10.0 | 3.1 | –
9 | Nc1ncnc2c1ncn2[C@H]1O[C@H]2CO[P@](=O)(S)O[C@@H]3[C@H](O)[C@@H](n4cnc5c(N)ncnc54)O[C@H]3CO[P@](=O)(S)O[C@@H]2[C@@H]1O [Compound 48, (2S,3S,3aR,5S,7aS,9S,10S,10aR,12S,14aS)-2,9-bis(6-amino-9H-purin-9-yl)-3,10-dihydroxy-5,12-dimercaptooctahydro-2H,7H-difuro[3,2-d:3′,2′-j][1,3,7,9]tetraoxa[2,8]diphosphacyclododecine 5,12-dioxide] | 2.3 | 2.0 | 2.3 | –
10 | CC(C)(C)[Si](C)(C)O[C@H]1[C@H]2O[P@@](=O)(S)OC[C@H]3O[C@@H](n4cnc5c(N)ncnc54)[C@H](F)[C@@H]3O[P@](=O)(S)OC[C@H]1O[C@H]2n1cnc2c(N)ncnc21 [Compound 6a, dithio-[SP, RP]-cyclic-[3′OTBS-A(2′,5′)p-2′F-A(3′,5′)p]] | – | 9.0 | 4.8 | 20.2
11 | Nc1nc2c(ncn2[C@@H]2O[C@@H]3CO[P@](=O)(S)O[C@@H]4[C@H](O)[C@@H](CO[P@](=O)(S)O[C@H]3[C@H]2O)O[C@H]4n2cnc3c(N)ncnc32)c(=O)[nH]1 [Compound 43] | 10.5 | – | – | –
